What was measured:
mTOR = mTOR (Homo sapiens, UniProt P42345); experiment: biochemical
[1] = test system: S6RP serine-240/244 phosphorylation; experiment: In vitro phospho-S6 cellular assay; type: cell-based; conditions: Homo sapiens; HEK293T/17 cells, 2 hours; read-out: pS6 inhibition value (IC50), activity level
Source text: Activation of mTOR signaling results in phosphorylation of several downstream targets. In cells, mTOR exists in two different protein complexes. The mTOR Complex-1 (mTORC1) phosphorylates and activates S6 Kinase 1 (S6K1) and S6 Kinase 2 (S6K2) (also known as p70S6K) which then phosphorylate S6 Ribosomal Protein (S6RP) (also known as RPS6)3. S6RP is phosphorylated on serine 235, serine 236, serine 240 and serine 244 by both pS6K1 and pS6K2. The mTOR Complex-2 (mTORC2) phosphorylates AKT on serine 473 which activates the AKT signaling pathway.
The assay measures a test compound's inhibition of S6RP serine-240/244 phosphorylation and inhibition of Akt serine-473 phosphorylation in human embryonic kidney derived HEK293T/17 cells (ATCC CRL-11268).
The HEK293T/17 cell line is maintained in DMEM media (Invitrogen catalogue number 41965-039) supplemented with 10% FCS at 37° C. in a 5% CO2 humidified incubator.
Cells are seeded in 96-well plates at 40,000 cells/well (pS6RP S240/244 assay) or 80,000 cells/well (pAkt S473 assay) in 90 μl growth media (DMEM, 2% FCS). Plates are incubated for 1 hour in a humidified incubator to allow the cells to adhere. Cells are treated with 8 concentrations of test compounds or DMSO alone for controls (final DMSO concentration 0.1%) and incubated at 37° C. for 2 hours. Then 20 μl of 5× concentrated lysis buffer (750 mM NaCl, 100 mM Tris pH7.4, 5 mM ADTA, 5 mM EGTA, 5% Triton X-100) is added, plates are sealed and incubated for 15 minutes at 4° C. with gentle shaking. After cell lysis, 25 μl cell lysate is transferred to a MesoScale plate coated with an antibody to pS6RP Ser240/244 (MesoScale Discovery K150DGD-3) or an antibody to pAkt Ser 473 (MesoScale Discovery K151DGD-3). Plates have been blocked before by incubation with 150 μl MesoScale Discovery Blocking Solution-A for 1 hour at room temperature followed by washing with 150 μl 1× Tris wash buffer per well. After the transfer of the cell lysate to the MSD plate, the pS6RP (or pAkt) protein is captured on the coated antibody by incubation at room temperature for 1 hour with gentle shaking. After the capture step the plate is washed three times with 150 μl of 1× Tris wash buffer per well. Then 25 μl detection antibody conjugated with a Sulfo-Tag is added and incubated for 1 hour at room temperature with gentle shaking. Subsequently the antibody solution is removed and the plate is washed 3 times with 150 μl 1× Tris wash buffer per well and 150 μl Read buffer is added. The plates are analysed on a MSD 2400 Plate Reader (MesoScale Discovery). Data analysis is performed using nonlinear regression for a sigmoidal dose-response with a variable slope.

[2] = target: DNA-dependent protein kinase (DNA-PK) (Homo sapiens, UniProt P78527); experiment: biochemical
Sequence of DNA-dependent protein kinase (DNA-PK) (P78527 whole entry): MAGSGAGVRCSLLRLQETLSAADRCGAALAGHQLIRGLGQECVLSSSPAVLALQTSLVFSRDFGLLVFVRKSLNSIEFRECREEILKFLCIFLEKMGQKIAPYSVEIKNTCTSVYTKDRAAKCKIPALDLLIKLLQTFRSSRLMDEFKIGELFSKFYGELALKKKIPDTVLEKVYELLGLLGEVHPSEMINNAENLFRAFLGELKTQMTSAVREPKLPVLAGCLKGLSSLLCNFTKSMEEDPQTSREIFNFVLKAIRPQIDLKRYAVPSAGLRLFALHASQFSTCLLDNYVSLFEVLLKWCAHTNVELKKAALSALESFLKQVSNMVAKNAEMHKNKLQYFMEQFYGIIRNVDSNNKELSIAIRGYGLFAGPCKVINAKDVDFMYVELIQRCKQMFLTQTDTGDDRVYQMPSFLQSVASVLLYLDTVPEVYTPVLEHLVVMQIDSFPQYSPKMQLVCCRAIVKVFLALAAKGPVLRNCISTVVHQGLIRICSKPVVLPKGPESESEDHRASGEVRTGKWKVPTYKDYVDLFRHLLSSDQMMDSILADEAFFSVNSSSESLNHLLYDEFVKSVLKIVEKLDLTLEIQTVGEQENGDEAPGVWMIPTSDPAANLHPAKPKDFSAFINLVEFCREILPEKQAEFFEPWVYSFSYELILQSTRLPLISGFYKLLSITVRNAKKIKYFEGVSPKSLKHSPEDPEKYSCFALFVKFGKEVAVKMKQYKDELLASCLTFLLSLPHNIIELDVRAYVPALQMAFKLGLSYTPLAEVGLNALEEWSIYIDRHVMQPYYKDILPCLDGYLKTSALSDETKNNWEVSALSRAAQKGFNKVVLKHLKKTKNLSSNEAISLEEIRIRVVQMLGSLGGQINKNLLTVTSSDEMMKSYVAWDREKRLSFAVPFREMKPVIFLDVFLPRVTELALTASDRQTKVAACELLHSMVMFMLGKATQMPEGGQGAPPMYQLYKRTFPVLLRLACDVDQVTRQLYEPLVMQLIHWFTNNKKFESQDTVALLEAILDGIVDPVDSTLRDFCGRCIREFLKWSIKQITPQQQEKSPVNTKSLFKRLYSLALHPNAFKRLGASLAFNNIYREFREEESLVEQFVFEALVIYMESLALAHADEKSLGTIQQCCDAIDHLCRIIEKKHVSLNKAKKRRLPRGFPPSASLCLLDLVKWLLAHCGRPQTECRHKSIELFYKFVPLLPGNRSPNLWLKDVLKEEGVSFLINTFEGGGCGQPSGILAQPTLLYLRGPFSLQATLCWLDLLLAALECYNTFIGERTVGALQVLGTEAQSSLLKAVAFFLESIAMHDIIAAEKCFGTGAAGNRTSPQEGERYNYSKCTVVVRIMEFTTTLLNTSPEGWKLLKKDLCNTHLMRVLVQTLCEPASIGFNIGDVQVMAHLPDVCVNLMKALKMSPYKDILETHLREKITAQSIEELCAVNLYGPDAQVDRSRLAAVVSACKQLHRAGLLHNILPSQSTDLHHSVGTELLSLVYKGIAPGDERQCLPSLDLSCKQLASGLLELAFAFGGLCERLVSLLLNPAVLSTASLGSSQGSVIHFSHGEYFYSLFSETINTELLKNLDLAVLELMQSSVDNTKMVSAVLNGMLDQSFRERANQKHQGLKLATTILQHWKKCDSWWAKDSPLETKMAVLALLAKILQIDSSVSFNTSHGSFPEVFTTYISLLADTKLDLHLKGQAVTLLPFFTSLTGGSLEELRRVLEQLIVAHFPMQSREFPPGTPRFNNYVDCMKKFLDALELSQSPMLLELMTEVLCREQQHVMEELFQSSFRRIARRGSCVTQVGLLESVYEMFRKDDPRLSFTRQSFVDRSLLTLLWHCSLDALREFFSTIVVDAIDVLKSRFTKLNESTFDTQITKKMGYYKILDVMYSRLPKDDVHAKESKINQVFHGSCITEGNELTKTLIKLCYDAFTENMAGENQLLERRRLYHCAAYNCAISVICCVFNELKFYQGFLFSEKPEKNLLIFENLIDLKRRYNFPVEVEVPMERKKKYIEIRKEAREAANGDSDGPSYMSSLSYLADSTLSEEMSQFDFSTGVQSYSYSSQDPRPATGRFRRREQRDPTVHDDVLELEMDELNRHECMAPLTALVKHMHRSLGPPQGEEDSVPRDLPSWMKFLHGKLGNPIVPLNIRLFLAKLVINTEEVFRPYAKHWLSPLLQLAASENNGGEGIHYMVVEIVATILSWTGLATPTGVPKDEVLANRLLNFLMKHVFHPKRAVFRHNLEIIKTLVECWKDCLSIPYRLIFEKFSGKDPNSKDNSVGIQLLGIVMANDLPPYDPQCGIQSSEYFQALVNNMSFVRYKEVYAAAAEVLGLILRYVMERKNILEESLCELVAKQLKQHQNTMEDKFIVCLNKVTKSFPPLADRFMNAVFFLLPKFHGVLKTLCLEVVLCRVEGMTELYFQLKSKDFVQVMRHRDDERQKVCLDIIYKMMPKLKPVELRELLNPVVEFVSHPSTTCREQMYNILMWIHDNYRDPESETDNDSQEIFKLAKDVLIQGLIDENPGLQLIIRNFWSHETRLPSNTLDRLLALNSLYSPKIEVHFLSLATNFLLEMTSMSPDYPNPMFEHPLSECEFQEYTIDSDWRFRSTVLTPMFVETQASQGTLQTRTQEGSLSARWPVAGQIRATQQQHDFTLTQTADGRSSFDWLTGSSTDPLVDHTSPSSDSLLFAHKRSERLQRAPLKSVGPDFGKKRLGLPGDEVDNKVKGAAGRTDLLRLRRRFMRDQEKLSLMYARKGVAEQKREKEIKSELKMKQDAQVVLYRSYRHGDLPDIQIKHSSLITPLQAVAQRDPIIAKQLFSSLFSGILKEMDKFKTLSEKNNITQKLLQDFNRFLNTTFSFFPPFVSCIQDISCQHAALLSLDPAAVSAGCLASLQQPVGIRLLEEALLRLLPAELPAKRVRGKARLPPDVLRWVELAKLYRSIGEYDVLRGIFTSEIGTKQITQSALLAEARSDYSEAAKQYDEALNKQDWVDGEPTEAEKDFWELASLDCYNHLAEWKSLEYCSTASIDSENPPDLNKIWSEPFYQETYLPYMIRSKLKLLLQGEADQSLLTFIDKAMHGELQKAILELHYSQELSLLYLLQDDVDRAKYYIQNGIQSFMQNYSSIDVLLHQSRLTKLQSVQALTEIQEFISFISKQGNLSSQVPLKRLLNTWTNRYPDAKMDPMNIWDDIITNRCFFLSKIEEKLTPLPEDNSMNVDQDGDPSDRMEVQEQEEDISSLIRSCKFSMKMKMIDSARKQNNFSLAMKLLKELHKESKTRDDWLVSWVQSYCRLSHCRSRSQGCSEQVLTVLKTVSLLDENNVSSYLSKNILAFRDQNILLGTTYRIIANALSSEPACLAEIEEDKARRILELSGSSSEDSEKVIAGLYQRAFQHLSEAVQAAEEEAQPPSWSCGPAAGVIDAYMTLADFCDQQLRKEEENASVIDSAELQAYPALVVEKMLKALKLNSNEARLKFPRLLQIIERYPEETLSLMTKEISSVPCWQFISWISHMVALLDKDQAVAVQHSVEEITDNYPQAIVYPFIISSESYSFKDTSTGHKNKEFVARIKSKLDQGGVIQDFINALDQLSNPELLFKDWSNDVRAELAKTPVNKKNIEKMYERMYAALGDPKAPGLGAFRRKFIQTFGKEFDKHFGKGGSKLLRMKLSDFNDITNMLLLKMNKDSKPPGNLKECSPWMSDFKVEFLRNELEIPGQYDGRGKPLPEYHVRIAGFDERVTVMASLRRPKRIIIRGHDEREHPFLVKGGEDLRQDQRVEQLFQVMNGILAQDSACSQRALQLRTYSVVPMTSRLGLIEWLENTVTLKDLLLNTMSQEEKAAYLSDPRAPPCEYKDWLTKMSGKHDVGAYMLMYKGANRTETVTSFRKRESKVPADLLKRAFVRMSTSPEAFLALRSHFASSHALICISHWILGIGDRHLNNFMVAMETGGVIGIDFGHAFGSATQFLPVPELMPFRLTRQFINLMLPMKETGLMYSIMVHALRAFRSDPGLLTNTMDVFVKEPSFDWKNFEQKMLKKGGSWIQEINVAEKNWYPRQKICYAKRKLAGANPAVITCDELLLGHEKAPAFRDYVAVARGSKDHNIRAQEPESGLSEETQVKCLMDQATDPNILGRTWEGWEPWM

Compound	IC50 (mTOR) [nM]	IC50 [1] [nM]	IC50 [2] [nM]
C[C@@H]1COCCN1c1nc(-c2ccc(NC(=O)NC3CC3)cc2)nc2c1CS(=O)(=O)C2 [Example 17, (R)-1-cyclopropyl-3-(4-(4-(3-methylmorpholino)-6,6-dioxido-5,7-dihydrothieno[3,4-d]pyrimidin-2-yl)phenyl)urea]	100 to 1000	< 100	
O=C(NCC(F)F)Nc1ccc(-c2nc3c(c(N4CC5CCC(C4)O5)n2)CS(=O)(=O)C3)cc1 [Example 24, 1-(4-(4-(8-oxa-3-azabicyclo[3.2.1]octan-3-yl)-6,6-dioxido-5,7-dihydrothieno[3,4-d]pyrimidin-2-yl)phenyl)-3-(2,2-difluoroethyl)urea]	100 to 1000	< 100	
CC1c2c(nc(-c3ccc(NC(=O)NC4CC4)cc3)nc2N2C3CCC2COC3)CS1(=O)=O (stereo not drawn) [Example 33, 1-(4-(4-(3-oxa-8-azabicyclo[3.2.1]octan-8-yl)-5-methyl-6,6-dioxido-5,7-dihydrothieno[3,4-d]pyrimidin-2-yl)phenyl)-3-cyclopropylurea]	< 100	< 100	
CC(C)NC(=O)Nc1ccc(-c2nc3c(c(N4CCOC[C@@H]4C)n2)CS(=O)(=O)C3)cc1 [Example 25, (S)-1-isopropyl-3-(4-(4-(3-methylmorpholino)-6,6-dioxido-5,7-dihydrothieno[3,4-d]pyrimidin-2-yl)phenyl)urea]	100 to 1000	100 to 1000	
CCNC(=O)Nc1ccc(-c2nc3c(c(N4CCOC[C@@H]4C)n2)CS(=O)(=O)C3)cc1 [Example 11, (S)-1-ethyl-3-(4-(4-(3-methylmorpholino)-6,6-dioxido-5,7-dihydrothieno[3,4-d]pyrimidin-2-yl)phenyl)urea]		< 100	> 10000
C[C@@H]1CN(c2nc(-c3ccc(NC(=O)NC4CC4)cc3)nc3c2CS(=O)(=O)C3)C[C@H](C)O1 [Example 19, 1-cyclopropyl-3-(4-(4-((2S,6R)-2,6-dimethylmorpholino)-6,6-dioxido-5,7-dihydrothieno[3,4-d]pyrimidin-2-yl)phenyl)urea]	1000 to 10000		
CNC(=O)Nc1ccc(-c2nc3c(c(N4CC5CCC(C4)O5)n2)CS(=O)(=O)C3)cc1 [Example 21, 1-(4-(4-(8-oxa-3-azabicyclo[3.2.1]octan-3-yl)-6,6-dioxido-5,7-dihydrothieno[3,4-d]pyrimidin-2-yl)phenyl)-3-methylurea]	< 100	100 to 1000	
O=C(Nc1ccc(-c2nc3c(c(N4CC5CCC(C4)O5)n2)CS(=O)(=O)C3)cc1)NC1CC1 [Example 20, 1-(4-(4-(8-oxa-3-azabicyclo[3.2.1]octan-3-yl)-6,6-dioxido-5,7-dihydrothieno[3,4-d]pyrimidin-2-yl)phenyl)-3-cyclopropylurea]	< 100	100 to 1000	
C[C@H]1COCCN1c1nc(-c2ccc(NC(=O)NC3CC3)cc2)nc2c1S(=O)(=O)C(C)(C)C2 [Example 37, (S)-1-cyclopropyl-3-(4-(6,6-dimethyl-4-(3-methylmorpholino)-5,5-dioxido-6,7-dihydrothieno[3,2-d]pyrimidin-2-yl)phenyl)urea]	100 to 1000		> 10000
CC1c2c(N3CCOCC3)nc(-c3ccc(NC(=O)NCCF)cc3)nc2C(C)(C)S1(=O)=O (stereo not drawn) [Example 81, 1-(2-fluoroethyl)-3-(4-(5,7,7-trimethyl-4-morpholino-6,6-dioxido-5,7-dihydrothieno[3,4-d]pyrimidin-2-yl)phenyl)urea]	< 100		

Continued, values first:

IC50 (mTOR) [nM]	IC50 [1] [nM]	IC50 [2] [nM]	Compound
< 100	< 100	> 10000	C[C@H]1COCCN1c1nc(-c2ccc(NC(=O)Nc3ccncc3)cc2)nc2c1CS(=O)(=O)C2 [Example 35, (S)-1-(4-(4-(3-methylmorpholino)-6,6-dioxido-5,7-dihydrothieno[3,4-d]pyrimidin-2-yl)phenyl)-3-(pyridin-4-yl)urea]
< 100	< 100	> 10000	CCC1COCCN1c1nc(-c2ccc(NC(=O)NC3CC3)cc2)nc2c1C(C)S(=O)(=O)C2 (stereo not drawn) [Example 32, 1-cyclopropyl-3-(4-(4-(3-ethylmorpholino)-5-methyl-6,6-dioxido-5,7-dihydrothieno[3,4-d]pyrimidin-2-yl)phenyl)urea]
< 100	100 to 1000	> 10000	CNC(=O)Nc1ccc(-c2nc3c(c(N4CCOC[C@@H]4C)n2)CS(=O)(=O)C3)cc1 [Example 12, (S)-1-methyl-3-(4-(4-(3-methylmorpholino)-6,6-dioxido-5,7-dihydrothieno[3,4-d]pyrimidin-2-yl)phenyl)urea]
< 100	< 100		C[C@H]1COCCN1c1nc(-c2ccc(NC(=O)NC3CC3)cc2)nc2c1CSCC2 [Example 3, (S)-1-cyclopropyl-3-(4-(4-(3-methylmorpholino)-7,8-dihydro-5H-thiopyrano[4,3-d]pyrimidin-2-yl)phenyl)urea]
< 100	100 to 1000		C[C@H]1COCCN1c1nc(-c2ccc(NC(=O)NCC(F)F)cc2)nc2c1CS(=O)(=O)C2 [Example 23, (S)-1-(2,2-difluoroethyl)-3-(4-(4-(3-methylmorpholino)-6,6-dioxido-5,7-dihydrothieno[3,4-d]pyrimidin-2-yl)phenyl)urea]
< 100		> 10000	C[C@H]1COCCN1c1nc(-c2ccc(NC(=O)Nc3cccnc3)cc2)nc2c1CS(=O)(=O)C2 [Example 36, (S)-1-(4-(4-(3-methylmorpholino)-6,6-dioxido-5,7-dihydrothieno[3,4-d]pyrimidin-2-yl)phenyl)-3-(pyridin-3-yl)urea]
< 100	< 100	> 10000	C[C@H]1COCCN1c1nc(-c2ccc(NC(=O)NC3CC3)cc2)nc2c1SCCC2 [Example 8, (S)-1-cyclopropyl-3-(4-(4-(3-methylmorpholino)-7,8-dihydro-6H-thiopyrano[3,2-d]pyrimidin-2-yl)phenyl)urea]
< 100	< 100	> 10000	CCNC(=O)Nc1ccc(-c2nc3c(c(N4CC5CCC(C4)O5)n2)CS(=O)(=O)C3)cc1 [Example 15, 1-(4-(4-(8-oxa-3-azabicyclo[3.2.1]octan-3-yl)-6,6-dioxido-5,7-dihydrothieno[3,4-d]pyrimidin-2-yl)phenyl)-3-ethylurea]
< 100	< 100		CC1c2c(nc(-c3ccc(NC(=O)NC4CC4)cc3)nc2N2CCOC[C@@H]2C)CS1(=O)=O (mixture of isomers) [Example 6, 1-cyclopropyl-3-(4-(5-methyl-4-((S)-3-methylmorpholino)-6,6-dioxido-5,7-dihydrothieno[3,4-d]pyrimidin-2-yl)phenyl)urea]
< 100	< 100		C[C@H]1COCCN1c1nc(-c2ccc(NC(=O)NC3CC3)cc2)nc2c1CS(=O)(=O)C2(C)C [Example 30, (S)-1-cyclopropyl-3-(4-(7,7-dimethyl-4-(3-methylmorpholino)-6,6-dioxido-5,7-dihydrothieno[3,4-d]pyrimidin-2-yl)phenyl)urea]
< 100	< 100		CC1c2c(nc(-c3ccc(NC(=O)NC4CC4)cc3)nc2N2CC3CCC(C2)O3)CS1(=O)=O (stereo not drawn) [Example 34, 1-(4-(4-(8-oxa-3-azabicyclo[3.2.1]octan-3-yl)-5-methyl-6,6-dioxido-5,7-dihydrothieno[3,4-d]pyrimidin-2-yl)phenyl)-3-cyclopropylurea]
< 100	< 100		CC1c2nc(-c3ccc(NC(=O)NC4CC4)cc3)nc(N3CCOC[C@@H]3C)c2CS1(=O)=O (stereo partly drawn) [Example 7, 1-cyclopropyl-3-(4-(7-methyl-4-((S)-3-methylmorpholino)-6,6-dioxido-5,7-dihydrothieno[3,4-d]pyrimidin-2-yl)phenyl)urea]
< 100			C[C@@H]1c2c(N3CCOC[C@@H]3C)nc(-c3ccc(NC(=O)NC4CC4)cc3)nc2C(C)(C)S1(=O)=O [Example 82, 1-cyclopropyl-3-(4-((R)-5,7,7-trimethyl-4-((S)-3-methylmorpholino)-6,6-dioxido-5,7-dihydrothieno[3,4-d]pyrimidin-2-yl)phenyl)urea]
